The text below walks through data of paper PMC3639963, “A New Class of Small Molecule Inhibitor of BMP Signaling” (PLoS ONE, 2013).

Common to all, as to assay: DSF thermal shift
Format in all cases: binding
What all share (conditions): 10 µM inhibitor; read-out: Tm shift

For one test, the target named is T1, ALK4 (Homo sapiens, UniProt P36896).
T1 construct: purchased Invitrogen
T1 sequence (P36896 24-505): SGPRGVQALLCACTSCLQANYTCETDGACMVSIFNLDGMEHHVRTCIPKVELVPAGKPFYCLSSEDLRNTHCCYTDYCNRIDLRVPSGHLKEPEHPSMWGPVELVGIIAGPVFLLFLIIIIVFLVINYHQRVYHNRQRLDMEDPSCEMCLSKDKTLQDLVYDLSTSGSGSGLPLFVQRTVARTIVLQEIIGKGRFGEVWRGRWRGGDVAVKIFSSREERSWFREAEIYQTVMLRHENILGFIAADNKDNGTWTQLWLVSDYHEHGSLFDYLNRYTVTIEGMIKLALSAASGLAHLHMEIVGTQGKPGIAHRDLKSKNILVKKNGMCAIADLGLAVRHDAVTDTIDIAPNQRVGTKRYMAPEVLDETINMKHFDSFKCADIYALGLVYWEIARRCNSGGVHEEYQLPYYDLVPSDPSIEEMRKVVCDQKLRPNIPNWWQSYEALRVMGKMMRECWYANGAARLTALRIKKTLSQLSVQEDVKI
The protocol: (§1) Thermal melting experiments were performed using a Real Time PCR machine Mx3005p (Stratagene) with a protein concentration of 1–2 µM and 10 µM inhibitor as described previously, [25]. […] Recombinant human kinases for DSF screening were prepared by SGC using published methods, [36].

A further test deals with T2, NEK1 (Homo sapiens, UniProt Q96PY6).
T2 construct: purchased Nanosyn (enzymatic panel); SGC in-house recombinant human kinases (DSF panel); Invitrogen (ALK1-6)
T2 sequence (Q96PY6 1-1258): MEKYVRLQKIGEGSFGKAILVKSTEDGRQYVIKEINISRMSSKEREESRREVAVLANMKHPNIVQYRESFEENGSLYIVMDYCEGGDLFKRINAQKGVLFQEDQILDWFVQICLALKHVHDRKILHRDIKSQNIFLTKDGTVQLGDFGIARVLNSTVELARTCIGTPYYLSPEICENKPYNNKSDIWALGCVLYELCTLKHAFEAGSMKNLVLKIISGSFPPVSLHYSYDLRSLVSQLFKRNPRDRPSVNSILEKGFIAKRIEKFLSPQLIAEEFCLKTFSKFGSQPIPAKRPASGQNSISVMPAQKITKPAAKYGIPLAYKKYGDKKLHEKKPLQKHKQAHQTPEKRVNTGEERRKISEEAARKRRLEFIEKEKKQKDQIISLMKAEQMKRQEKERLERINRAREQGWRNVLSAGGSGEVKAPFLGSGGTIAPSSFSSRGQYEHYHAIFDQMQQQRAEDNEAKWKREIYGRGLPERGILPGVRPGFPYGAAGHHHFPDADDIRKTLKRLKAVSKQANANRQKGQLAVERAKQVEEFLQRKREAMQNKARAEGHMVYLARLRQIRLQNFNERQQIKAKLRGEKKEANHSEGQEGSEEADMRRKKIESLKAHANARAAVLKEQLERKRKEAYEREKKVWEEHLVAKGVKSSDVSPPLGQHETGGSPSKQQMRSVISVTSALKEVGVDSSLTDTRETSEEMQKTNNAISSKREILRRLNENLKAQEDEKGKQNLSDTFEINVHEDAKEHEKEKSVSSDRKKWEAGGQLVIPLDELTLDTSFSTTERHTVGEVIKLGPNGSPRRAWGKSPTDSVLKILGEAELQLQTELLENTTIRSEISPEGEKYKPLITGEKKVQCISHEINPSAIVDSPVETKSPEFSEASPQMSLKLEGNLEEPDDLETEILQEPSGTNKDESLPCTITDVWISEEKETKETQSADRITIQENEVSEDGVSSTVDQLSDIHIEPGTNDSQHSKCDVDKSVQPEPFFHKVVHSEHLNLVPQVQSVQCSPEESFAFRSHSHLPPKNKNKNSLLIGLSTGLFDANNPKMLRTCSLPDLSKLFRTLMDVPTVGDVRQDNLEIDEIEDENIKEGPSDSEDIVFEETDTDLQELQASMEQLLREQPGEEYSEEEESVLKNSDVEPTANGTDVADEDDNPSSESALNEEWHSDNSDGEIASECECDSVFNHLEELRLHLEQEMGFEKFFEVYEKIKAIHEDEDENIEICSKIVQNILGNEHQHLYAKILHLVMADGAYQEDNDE
On the procedure: as §1

Another test concerns the target T3, PLK4 (Homo sapiens, UniProt O00444).
T3 construct: purchased Nanosyn (enzymatic panel); SGC in-house recombinant human kinases (DSF panel); Invitrogen (ALK1-6)
T3 sequence (O00444 1-970): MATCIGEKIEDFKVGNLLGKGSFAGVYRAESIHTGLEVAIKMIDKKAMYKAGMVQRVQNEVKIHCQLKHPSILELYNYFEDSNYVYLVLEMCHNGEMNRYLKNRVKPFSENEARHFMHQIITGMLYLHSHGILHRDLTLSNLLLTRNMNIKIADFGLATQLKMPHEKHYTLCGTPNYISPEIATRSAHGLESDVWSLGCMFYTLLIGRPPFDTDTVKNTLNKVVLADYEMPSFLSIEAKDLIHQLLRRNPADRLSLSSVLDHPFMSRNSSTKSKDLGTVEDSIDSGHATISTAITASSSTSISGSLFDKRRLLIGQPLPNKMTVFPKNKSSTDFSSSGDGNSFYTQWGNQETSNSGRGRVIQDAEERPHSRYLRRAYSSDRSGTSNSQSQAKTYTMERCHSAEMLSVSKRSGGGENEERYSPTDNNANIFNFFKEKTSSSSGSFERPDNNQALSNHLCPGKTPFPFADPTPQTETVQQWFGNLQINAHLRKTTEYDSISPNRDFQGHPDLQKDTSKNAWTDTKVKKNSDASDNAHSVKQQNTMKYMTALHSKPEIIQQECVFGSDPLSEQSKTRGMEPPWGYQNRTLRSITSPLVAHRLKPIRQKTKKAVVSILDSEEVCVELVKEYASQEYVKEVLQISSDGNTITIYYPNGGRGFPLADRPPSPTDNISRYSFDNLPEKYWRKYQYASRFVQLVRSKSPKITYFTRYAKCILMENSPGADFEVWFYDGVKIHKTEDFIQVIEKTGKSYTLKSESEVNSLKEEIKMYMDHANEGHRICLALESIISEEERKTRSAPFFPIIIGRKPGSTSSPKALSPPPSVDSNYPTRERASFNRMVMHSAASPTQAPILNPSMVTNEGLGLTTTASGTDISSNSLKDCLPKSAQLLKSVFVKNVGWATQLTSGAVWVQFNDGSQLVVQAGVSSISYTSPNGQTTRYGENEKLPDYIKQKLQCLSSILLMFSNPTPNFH
On the procedure: as §1

In the case of `c1ccc2c(-c3cnn4cc(-c5ccc(N6CCNCC6)cc5)cnc34)ccnc2c1` [LDN-193189], the ΔTm at 10 µM on ALK4 was determined as 11 °C; on NEK1, 0.2 °C; on PLK4, 3.7 °C.

For the compound `COc1cc(-c2cc(-c3cccc(O)c3)cnc2N)cc(OC)c1OC` [K02288, 3-[6-amino-5-(3,4,5-trimethoxy-phenyl)-pyridin-3-yl]-phenol], the values for the ΔTm at 10 µM on ALK4, at NEK1 and on PLK4 were 8.2 °C, 0.2 °C and 0 °C, respectively.

For `c1cc(-c2cnn3cc(-c4ccc(OCCN5CCCCC5)cc4)cnc23)ccn1` [Dorsomorphin], the ΔTm at 10 µM is 6.1 °C on ALK4, 0.1 °C at NEK1 and 4.2 °C at PLK4.
